In experiment [1] the test system is Uterine Eosinophil Peroxidase (EPO). Briefly: Uterine Eosinophil Peroxidase (EPO) Assay (Table 1). It is filed as in vivo, female Sprague Dawley rats. Details: key to Uterine EPO (V. max): Vmax of absorbance increase at 450 nm, monitored over 1 min. Conditions: OVX rats, daily for 4 days. The text has this:
(§1) Seventy-five day old female Sprague Dawley rats (weight range of 200 to 225 g) were obtained from Charles River Laboratories (Portage, Mich.). The animals were either bilaterally ovariectomized (OVX) or exposed to a sham surgical procedure at Charles River Laboratories, and then shipped after one week. Upon arrival, they were housed in metal hanging cages in groups of 3 or 4 per cage and had ad libitum access to food (calcium content approximately 0.5%) and water for one week. Room temperature was maintained at 22.2° ±1.7° C. with a minimum relative humidity of 40%. The photoperiod in the room was 12 hours light and 12 hours dark.
(§2) Dosing Regimen Tissue Collection. After a one week acclimation period (therefore, two weeks post-OVX) daily dosing with test compound was initiated. 17α-ethynyl estradiol or the test compound were given orally, unless otherwise stated, as a suspension in 1% carboxymethylcellulose or dissolved in 20% cyclodextrin. Animals were dosed daily for 4 days. Following the dosing regimen, animals were weighed and anesthetized with a ketamine: Xylazine (2:1, V:V) mixture and a blood sample was collected by cardiac puncture. The animals were then sacrificed by asphyxiation with CO2, the uterus was removed through a midline incision, and a wet uterine weight was determined.
Uterine Eosinomhil Peroxidase (EPO) Assay. Uteri were kept at 4° C. until time of enzymatic analysis. The uteri were then homogenized in 50 volumes of 50 mM Tris buffer (pH-8.0) containing 0.005% Triton X-100. Upon addition of 0.01% hydrogen peroxide and 10 mM O-phenylenediamine (final concentrations) in Tris buffer, increase in absorbance was monitored for one minute at 450 nm. The presence of eosinophils in the uterus is an indication of estrogenic activity of a compound. The maximal velocity of a 15 second interval was determined over the initial, linear portion of the reaction curve.
As is expressed in the below data, estrogenicity also was assessed by evaluating the response of eosinophil infiltration into the uterus.
(§3) The data presented in Table 1 below reflects the response of 5 to 6 rats per treatment.

For another experiment, the system named is uterus. Briefly: Uterine weight in ovariectomized rats, 4-day oral dosing (Table 1). It is filed as in vivo, female Sprague Dawley rats. Conditions: Rattus norvegicus, po, 96 h, OVX rats, daily for 4 days, read-out: Uterine Wt. (% inc. vs. OVX). The protocol:
In the examples illustrating the methods, a post-menopausal model was used in which effects of different treatments upon circulating lipids were determined.
as §1, §2
(§4) Data presented in Table 1 below show comparative results among ovariectomized rats, rats treated with 17α-ethynyl estradiol (EE2; an orally available form of estrogen), and rats treated with certain compounds of the present invention. […] This uterine response to estrogen is well recognized in the art.
as §3

The test system of experiment [2] is MCF-7 breast adenocarcinoma cells. The experiment is described as follows: MCF-7 Proliferation Assay. It is filed as cell-based. Conditions: Homo sapiens, MCF7, tritiated thymidine, 48 hours. How it is done:
MCF-7 breast adenocarcinoma cells (ATCC HTB 22) were maintained in MEM (minimal essential medium, phenol red-free, Sigma, St. Louis, Mo.) supplemented with 10% fetal bovine serum (FBS) (V/V), L-glutamine (2 mM), sodium pyruvate (1 mM), HEPES {(N-[2-hydroxyethyl]piperazine-N'-[2-ethanesulfonic acid]10 mM}, non-essential amino acids and bovine insulin (1 ug/mL) (maintenance medium). Ten days prior to assay, MCF-7 cells were switched to maintenance medium supplemented with 10% dextran coated charcoal stripped fetal bovine serum (DCC-FBS) assay medium) in place of 10% FBS to deplete internal stores of steroids. MCF-7 cells were removed from maintenance flasks using cell dissociation medium (Ca++/Mg++free HBSS (phenol red-free) supplemented with 10 mM HEPES and 2 mM EDTA). Cells were washed twice with assay medium and adjusted to 80,000 cells/mL. Approximately 100 μL (8,000 cells) were added to flat-bottom microculture wells (Costar 3596) and incubated at 37° C. in a 5% CO2 humidified incubator for 48 hours to allow for cell adherence and equilibration after transfer. Serial dilutions of drugs or DMSO as a diluent control were prepared in assay medium and 50 μL transferred to triplicate microcultures followed by 50 μL assay medium for a final volume of 200μ. After an additional 48 hours at 37° C. in a 5% CO2 humidified incubator, microcultures were pulsed with tritiated thymidine (1 uCi/well) for 4 hours. Cultures were terminated by freezing at -70° C. for 24 hours followed by thawing and harvesting of microcultures using a Skatron Semiautomatic Cell Harvester. Samples were counted by liquid scintillation using a Wallac BetaPlace β counter. Results in Table 4 below show the IC50 for certain compounds of the present invention.

A further experiment concerns Serum cholesterol. The experiment is described as follows: Serum cholesterol in ovariectomized rats, 4-day oral dosing (Table 1). It is filed as in vivo, female Sprague Dawley rats. Particulars: Rattus norvegicus, po, 96 h, OVX rats, daily for 4 days.
Excerpt: as §1, §2
Cholesterol Analysis. Blood samples were allowed to clot at room temperature for 2 hours, and serum was obtained following centrifugation for 10 minutes at 3000 rpm. Serum cholesterol was determined using a Boehringer Mannheim Diagnostics high performance cholesterol assay. Briefly the cholesterol was oxidized to cholest-4-en-3-one and hydrogen peroxide. The hydrogen peroxide was then reacted with phenol and 4-aminophenazone in the presence of peroxidase to produce a p-quinone imine dye, which was read spectrophotometrically at 500 nm. Cholesterol concentration was then calculated against a standard curve. The entire assay was automated using a Biomek Automated Workstation.
as §4, §3

What is called pIC50 is the IC50 on a negative log10 scale, so that one unit is a factor of ten. One may read the ED50 as the dose at which the effect has come halfway, by size or by number of responders.

pIC50: −log10 of the molar value.

In the case of `Oc1ccc(-c2ccc(-c3ccc(O)cc3)c(-c3ccc(OCCN4CCCC4)cc3)n2)cc1` [Example 14, 2-[4-[2-(1-Pyrrolidinyl)ethoxy]phenyl]-3,6-bis(4-hydroxyphenyl)pyridine], the “Uterine EPO (V. max)” value in experiment [1] (0.1 mg/kg oral) is listed as 2.4; in experiment [1] (1 mg/kg oral), 4.5; in experiment [1] (10 mg/kg oral), 4.2. In addition, the change in vivo at 0.1 mg/kg in the experiment on uterus (0.1 mg/kg oral) is 6.3%. The change in vivo at 1 mg/kg in the experiment on uterus (1 mg/kg oral) is -3.3%. The change in vivo at 10 mg/kg in the experiment on uterus (10 mg/kg oral) was 8.8%. In experiment [2], this compound showed a pIC50 of 8.05. Moreover, in the experiment with Serum cholesterol (0.1 mg/kg oral, read-out: Serum Cholesterol (% dec. vs. OVX)), the inhibition in vivo at 0.1 mg/kg was 11.9%. Moreover, in the experiment with Serum cholesterol (1 mg/kg oral, read-out: Serum Cholesterol (% dec. vs. OVX)), the inhibition in vivo at 1 mg/kg was -16.5%. Also, the inhibition in vivo at 10 mg/kg in the experiment on Serum cholesterol (10 mg/kg oral, read-out: Serum Cholesterol (% dec. vs. OVX)) is -7.3%. In the experiment with Serum cholesterol (oral, dose column in mg/kg, read-out: ED50 (effective dose to dec. serum chol. by 50%)), the ED50 is above 10 mg/kg.

These data come from patent US5672609A, “Pyridine compounds, intermediates compositions and methods of use” (Eli Lilly and Company, priority 1996, dated 1997).
